{"source": "patent US5780642A", "about": "“Imidazole derivatives as therapeutic agents” (KNOLL Aktiengesellschaft, priority 1993, dated 1998)", "note": "Where a name gives a salt, the structure may show the parent alone.", "data": [{"system": "Zymosan Stimulated Macrophages (arachidonic acid release)", "assay": "Test A: Inhibition of Arachidonic Acid Release from Zymosan Stimulated Macrophages", "assay_type": "cell-based, mouse (female MF1 mice)", "conditions": "Mus musculus, Macrophage, inhibition of arachidonic acid release, zymosan stimulated mouse peritoneal macrophages; tested at 100, 50, 20, 10, 5 and 1 μM; ≤100 μM considered active; read-out: Test A IC50", "protocol": "(§1) Test A was carried out in the following way:\n(§2) Inhibition of Arachidonic Acid Release from Zymosan Stimulated Macrophages\n(§3) Female MF1 mice (weighing 20 to 25 g) were killed using a rising concentration of CO2. The mice were laid on their backs and the abdomens wiped with 70% alcohol. The skin was pulled back, exposing the peritoneal wall. Medium A (5 ml) (see below) was injected into the peritoneal cavity of each mouse followed by approximately 1 ml of air using a 20 ml syringe and a 21G×40 mm needle in order to form a suspension of macrophage cells. The medium and cells were then removed using a 19G×40 mm needle. The resulting suspension was returned to a sterile beaker kept on ice. The extracts from all the mice were pooled and this pooled cell suspension was counted using a Coulter counter and adjusted to a final cell count of 1-1.3×10^6 cells/ml prior to labelling with [^3 H]-arachidonic acid. Typically five mice provided sufficient cells for each multiwell plate.\n(§4) Sufficient [^3 H]-arachidonic acid in ethanol to give a final concentration of 1.6 μCi/ml (equivalent to 40 μCi/plate) was blown to dryness under nitrogen. The arachidonic acid was then resuspended in 1 or 2 ml of the cell suspension which was then mixed with the remainder of the cell suspension in a centrifuge bottle. The labelled cell suspension was then plated out into sterile plastic 96 flat-bottomed well plates (250 μl per well) and incubated overnight at 37° C. in a moist atmosphere of 5% CO2, 95% air.\n(§5) The following day, non-adherent cells were removed by washing 3 times with sterile phosphate buffered saline (PBS). The adherent peritoneal macrophages were then cultured for a further 24 hours in the presence or absence of drugs, in medium B (see below) at 37° in a 5% CO2 atmosphere in order to measure the effects of drugs on the spontaneous release of arachidonic acid in the absence of stimulus. After this incubation, supernatants were removed to give media 1 and stored in sealed multi-well plates at 4° C. prior to scintillation counting. Drugs which potentiated spontaneous release of arachidonic acid (125% of controls) were deemed to be toxic at the concentration at which this phenomenon occurred. The supernatants were replaced by fresh medium C containing fresh drug and a stimulus. Three drugs were tested at six concentrations (100, 50, 20, 10, 5 and 1 μM) in replicates of four on each plate. The other wells contained controls consisting of a positive control (e.g. dexamethasone), medium (B) only and medium C only.\n(§6) Incubation was then continued for a further 5 hours, whereupon the supernatants were collected to give media 2 and the adherent cells washed with PBS. The cells were then lysed with 100 μl of 0.1% TRITON® X100 in a 0.1% solution of bovine serum albumin in 0.9% saline and mechanically disrupted to give cell lysates. These supernatants (media 2) and cell lysates (Cells) were also stored in sealed multi-well plates at 4° C. prior to scintillation counting. 200 μl aliquots of media, or 100 μl aliquots of cells were counted using 2 ml of OPTIPHASE \"HIGH SAFE\" (Trademark of LKB) as scintillant.\n(§7) The percentage of arachidonic acid released was calculated using the mean values for each group of 4 wells in the following equation. [formula]\n(§8) The value for the arachidonic acid release in the absence of stimulus (spontaneous, cpm of media 2) from cells which had been exposed to neither stimulus nor drug was subtracted from all equivalent values (cpm media 2, stimulated with or without drug) to give the net stimulated release. The percentage inhibition of arachidonic acid release caused by a drug may then be calculated using the following equation. [formula]\n(§9) Compounds of formula I were tested at six concentrations (100, 50, 20, 10, 5 and 1 μM) and IC50 values calculated. Compounds with IC50 values≤100 μM are considered to be active. Advantageous compounds have an IC50 value<50 μM.\n(§10) Medium A (for peritoneal lavage) […]", "units": {"IC50": "µM"}, "values": [{"smiles": "CC(C)(COC(=O)c1ccc(Cl)cc1)NCCCn1ccnc1", "note": "[Example 79, 2-[3-(imidazol-1-yl)propylamino]-2,2-dimethylethyl 4-chlorobenzoate dihydrochloride]", "IC50": 20}, {"smiles": "OCCN(CCCn1ccnc1)CCOc1ccc(Cl)cc1", "note": "[Example 66, 2-{N-[2-(4-chlorophenoxy)ethyl]-N-[3-(imidazol-1-yl)propyl]amino}ethanol]", "IC50": 24}, {"smiles": "CC(C)(COc1ccc(F)cc1)NCCCn1ccnc1", "note": "[Example 40, N-[2-(4-Fluorophenoxy)-1,1-dimethylethyl]-3-(imidazol-1-yl)propylamine dimaleate hemihydrate]", "IC50": 0.3}, {"smiles": "CCC(CC)(NCCCn1cnc(CCNC(=O)c2ccc(OC)cc2)c1)c1ccccc1", "note": "[Example 61, N-(2-{1-[3-(1-ethyl-1-phenylpropylamino)propyl]-imidazol-4-yl}ethyl)-4-methoxybenzamide]", "IC50": 9}, {"smiles": "CC(C)(NCCCn1ccnc1)c1ccc(CCNC(=O)c2ccccc2)cc1", "note": "[Example 57, N-[2-(4-{1-[3-(imidazol-1-yl)propylamino]-1-methylethyl}phenyl)-ethyl]benzamide]", "IC50": 21}, {"smiles": "Clc1ccc(C2(CCNCCCn3ccnc3)OCCO2)cc1", "note": "[Example 32, N-{2-[2-(4-Chlorophenyl)-1,3-dioxolan-2-yl]ethyl}-3-(imidazol-1-yl)propylamine]", "IC50": 9}, {"smiles": "CC(C)(NCCCc1nccn1Cc1ccccc1)c1ccc(Cl)cc1", "note": "[Example 86, 3-(1-benzylimidazol-2-yl)-N-[1-(4-chlorophenyl)-1-methylethyl]propylamine]", "IC50": 3}, {"smiles": "CC(C)(NCCCn1cnc(CCN)c1)c1ccc(Cl)cc1", "note": "[Example 22, 3-[4-(2-Aminoethyl)imidazol-1-yl]-N-[1-(4-chlorophenyl)-1-methylethyl]propylamine trihydrochloride]", "IC50": 26}, {"smiles": "N#Cc1ccc(OCCNCCCn2ccnc2)cc1", "note": "[Example 31, 4-{2-[3-(Imidazol-1-yl)propylamino]ethoxy}benzonitrile sesquihydrochloride]", "IC50": 74}, {"smiles": "CCc1ccc(OCCNCCCn2ccnc2)cc1", "note": "[Example 5, N-[2-(4-Ethylphenoxy)ethyl]-3-(imidazol-1-yl)propylamine]", "IC50": 17}, {"smiles": "CC(C)(NCCCn1ccnc1)c1ccc(Cl)c(NC(=O)c2ccccc2)c1", "note": "[Example 73, 2'-chloro-5'-{1-[3-(imidazol-1-yl)propylamino]-1-methylethyl}benzanilide]", "IC50": 25}, {"smiles": "Cc1nccn1CCCNCCCc1ccc(Cl)cc1", "note": "[Example 12, 3-(4-Chlorophenyl)-3'-(2-methylimidazol-1-yl)dipropylamine]", "IC50": 7}, {"smiles": "COC(=O)CN(CCCn1ccnc1)CCOc1ccc(Cl)cc1", "note": "[Example 65, methyl N-[2-(4-chlorophenoxy)ethyl]-N-[3-(imidazol-1-yl)propyl]glycinate]", "IC50": 88}, {"smiles": "Clc1ccc(CCCNCCCn2ccnc2)cc1", "note": "[Example 14, 3-(4-Chlorophenyl)-3'-(imidazol-1-yl)dipropylamine]", "IC50": 6}, {"smiles": "CSc1ccc(OCC(C)(C)NCCCn2ccnc2)cc1", "note": "[Example 33, N-[1,1-Dimethyl-2-(4-methylthiophenoxy)ethyl]-3-(imidazol-1-yl)propylamine dihydrochloride hydrate]", "IC50": 32}, {"smiles": "CC(C)(COc1ccccc1)NCCCCCn1ccnc1", "note": "[Example 75, 5-(imidazol-1-yl)-N-(1,1-dimethyl-2-phenoxyethyl)pentylamine]", "IC50": 26}, {"smiles": "CC(C)(NCC(O)Cn1cnc(CCNC(=O)c2ccccc2)c1)c1ccc(Cl)cc1", "note": "(stereo not shown) [Example 63, N-[2-(1-{3-[1-(4-chlorophenyl)-1-methylethylamino]-2-hydroxypropyl}imidazol-4-yl)ethyl]benzamide]", "IC50": 14}, {"smiles": "Cc1ccc(OCCNCCCn2ccnc2)cc1C", "note": "[Example 6, N-[2-(3,4-Dimethylphenoxy)ethyl]-3-(imidazol-1-yl)propylamine]", "IC50": 20}, {"smiles": "CC(C)(CS(=O)(=O)c1ccc(C(C)(C)C)cc1)NCCCn1ccnc1", "note": "[Example 70, N-[2-(4-t-butylphenylsulphonyl)-1,1-dimethylethyl]-3-(imidazol-1-yl)-propylamine dihydrochloride]", "IC50": 84}, {"smiles": "CC(C)(C[S+]([O-])c1ccc(Cl)cc1)NCCCn1ccnc1", "note": "(stereo not shown) [Example 68, N-[2-(4-chlorophenylsulphinyl)-1,1-dimethylethyl]-3-(imidazol-1-yl)propylamine dihydrochloride]", "IC50": 100}, {"smiles": "CCCCCCS(=O)(=O)Cc1ccc(C(C)(C)NCCCn2ccnc2)cc1", "note": "[Example 25, N-(1-[4-(Hexylsulphonylmethyl)phenyl]-1-methylethyl)-3-(imidazol-1-yl)propylamine dihydrochloride]", "IC50": 11}, {"smiles": "COc1ccc(S(=O)(=O)NCCc2ccc(C(C)(C)NCCCn3ccnc3)cc2)cc1", "note": "[Example 42, N-[2-(4-{1-[3-(Imidazol-1-yl)propylamino]-1-methylethyl}phenyl)ethyl]-4-methoxybenzenesulphonamide]", "IC50": 9}, {"smiles": "CCCC(CCC)(NCCCn1ccnc1)c1ccc(CC(=O)NC)cc1", "note": "[Example 34, 4-{1-[3-(Imidazol-1-yl)propylamino]-1-propylbutyl)phenyl-N-methylacetamide]", "IC50": 76}, {"smiles": "CC(C)(NCCCn1ccnc1)c1ccc(CC(=O)NC2CCCCCC2)cc1", "note": "[Example 37, N-Cycloheptyl-4-{1-[3-(imidazol-1-yl)propylamino]-1-methylethyl}phenylacetamide]", "IC50": 49}, {"smiles": "CCCCS(=O)(=O)Oc1ccc(OCCNCCCn2ccnc2)cc1", "note": "[Example 67, 4-{2-[3-(imidazol-1-yl)propylamino]ethoxy}phenyl 1-butane sulphonate]", "IC50": 20}, {"smiles": "CCCCNCc1cn(CCCNC(C)(C)c2ccc(Cl)cc2)cn1", "note": "[Example 82, 3-[4-(butylaminomethyl)imidazol-1-yl]-N-[1-(4-chlorophenyl)-1-methylethyl]propylamine]", "IC50": 17}, {"smiles": "Clc1ccc(SCCNCCCn2ccnc2)cc1", "note": "[Example 11, N-[2-(4-Chlorophenylthio)ethyl]-3-(imidazol-1-yl)propylamine]", "IC50": 37}, {"smiles": "Clc1ccc(OCCCNCCCn2ccnc2)cc1", "note": "[Example 9, 3-(4-Chlorophenoxy)-3'-(imidazol-1-yl)dipropylamine]", "IC50": 50}, {"smiles": "Cc1ccc(S(=O)(=O)Cc2ccc(C(C)(C)NCCCn3ccnc3)cc2)cc1C", "note": "[Example 24, 3-(imidazol-1-yl)-N-{1-methyl-1-[4-(3,4-xylylsulphonylmethyl)phenyl]ethyl}propylamine dihydrochloride hydrate]", "IC50": 22}, {"smiles": "CC(C)(COc1ccccc1)NCCCn1ccnc1", "note": "[Example 35, 3-(Imidazol-1-yl)-N-(1,1-dimethyl-2-phenoxyethyl) propylamine]", "IC50": 47}, {"smiles": "CC(C)(NCCCn1ccnc1)c1ccc(CCOCc2ccccc2)cc1", "note": "[Example 27, N-{1-[4-(2-Benzyloxyethyl)phenyl]-1-methylethyl}-3-(imidazol-1-yl)propylamine]", "IC50": 70}]}, {"system": "Zymosan Stimulated Macrophages (arachidonic acid release)", "assay": "Test A: Inhibition of Arachidonic Acid Release from Zymosan Stimulated Macrophages", "assay_type": "cell-based, mouse (female MF1 mice)", "conditions": "Mus musculus, Macrophage, read-out: Test A IC50", "protocol": "as §1, §2, §3, §4, §5, §6, §7, §8, §9, §10", "units": {"IC50": "µM"}, "values": [{"smiles": "CC(C)(NCCCn1ccnc1)c1ccc(-c2ccc(O)cc2)cc1", "note": "[Example 59, 4'-{1-[3-(imidazol-1-yl)propylamino]-1-methylethyl}biphenyl-4-ol]", "IC50": 8}]}, {"system": "Zymosan Stimulated Macrophages (arachidonic acid release)", "assay": "Test A: Inhibition of Arachidonic Acid Release from Zymosan Stimulated Macrophages", "assay_type": "cell-based, mouse (female MF1 mice)", "conditions": "inhibition of arachidonic acid release, zymosan stimulated mouse peritoneal macrophages; tested at 100, 50, 20, 10, 5 and 1 μM; ≤100 μM considered active; read-out: Test A IC50", "protocol": "as §1, §2, §3, §4, §5, §6, §7, §8, §9, §10", "units": {"IC50": "µM"}, "values": [{"smiles": "CC(C)(NCC(O)Cn1ccnc1)c1ccc(Cl)cc1", "note": "(single isomer, unassigned; (+)) [Example 45, (+)-1-[1-(4-Chlorophenyl)-1-methylethylamino]-3-(imidazol-1-yl)propan-2-ol]", "IC50": 170}, {"smiles": "CC(C)(NCC(O)Cn1ccnc1)c1ccc(Cl)cc1", "note": "(single isomer, unassigned; (-)) [Example 46, (-)-1-[1-(4-Chlorophenyl)-1-methylethylamino]-3-(imidazol-1-yl)propan-2-ol]", "IC50": 80}]}]}
